Assay results from US8765747B2, “Fused 2-aminothiazole compounds” (Dana-Farber Cancer Institute, Inc., priority 2009, dated 2014).

Key:
Assay type in all cases: cell-based, murine
32D-BCR-Abl = experiment: Cell cycle analysis; details: 24 hours of treatment
Text: (§1) Ba/F3.p210 cells were obtained by transfecting the IL-3-dependent marine hematopoietic Ba/F3 cell line with a pGD vector containing p210BCR-ABL (B2A2) cDNA (Daley and Baltimore, 1988; Sattler et al., 1996; Okuda et al., 1996). Murine hematopoietic 32D cells were transduced with retrovirus to express p210 Bcr-ABL (32D.p210 cells) (Matulonis et al., 1993); the 32D-T315I cell line was transfected by electroporation with the imatinib resistant BCR-ABL construct (pCI-neo Mammalian Expression Vector; Promega (#E1841) harboring the point mutation T315I (Weisberg et al., 2005). Ba/F3 cells were stably transfected by electroporation with imatinib-resistant BCR-ABL constructs (pCI-neo Mammalian Expression Vector; Promega (#E1841) harboring the point mutations T315I, F317L, F486S, and M351T; transfectants were selected for neomycin resistance and IL-3-independent growth (Weisberg et al., 2005). Ba/F3 cells were stably transfected by electroporation with BCR-ABL point mutants identified in a random mutagenesis screen for BCR-ABL point mutants conferring resistance to nilotinib: Q252H, E292K, Y253C, Y253H, E255K, and V289L (Ray et al., 2007). Ba/F3 cells were made to express Tel-PDGFRβ as described by Golub et al., 1994, and Carroll et al., 1996. Constructs of D842V-PDGFRα and V561D-PDGFRα cDNA cloned into pcDNA3.1 were stably transfected into Ba/F3 cells by electroporation, and cells were selected for neomycin resistance and IL3-independent growth as described by Weisberg et al., 2006.
(§2) All cell lines were cultured with 5% CO2 at 37° C. in RPMI (Mediatech, Inc., Herndon, Va.) with 10% fetal calf serum (FCS) and supplemented with 1% L-glutamine. Parental Ba/F3 cells were similarly cultured with 15% WEHI-conditioned medium as a source of IL-3. Transfected cell lines were cultured in media supplemented with 1 mg/ml G418.
(§3) Cell cycle analysis was performed using approximately 500,000 cells, which were centrifuged at 1500 rpm for 5 min, washed in PBS, and the pellet re-suspended in 500 μl of propidium iodide solution (50 μg/ml propidium iodide, 0.1% NP-40, 0.1% sodium citrate). The mixture was stored in the dark at 4° C. for a minimum of 15 min, and then analyzed by flow cytometry. Apoptosis of drug-treated cells was measured using the Annexin-V-Fluos Staining Kit (Boehringer Mannheim, Indianapolis).

Ba/F3-PDGFRα-D842V = experiment: Relative IC50 in PDGFR-expressing cell line; details: Mus musculus, 48 h, 2 day experiment, read-out: Relative IC50 range
Method: (§4) All compounds were initially dissolved in DMSO to make 10 mM stock solutions, and then were serially diluted to obtain final concentrations for in vitro experiments.
as §1, §2

Ba/F3-PDGFRα-V561D = experiment: Relative IC50 in PDGFR-expressing cell line; details: Mus musculus, 48 h, 2 day experiment, read-out: Relative IC50 range
Method: as §4, §1, §2

Ba/F3-TEL/PDGFRβ = experiment: Relative IC50 in PDGFR-expressing cell line; details: Mus musculus, 2.5-3 days, read-out: Relative IC50 range
Method: as §4, §1, §2

Ba/F3-PDGFRα-T674I [1] = experiment: Cell cycle analysis; details: 24 hours of treatment
Method: as §2, §3

Ba/F3-PDGFRα-T674M [2] = experiment: Cell cycle analysis; details: 24 hours of treatment
Method: as §2, §3

Ba/F3-kit-T6701 [3] = experiment: Cell cycle analysis; details: 24 hours of treatment
Method: as §2, §3

Ba/F3-PDGFRα-T674I [4] = experiment: Apoptosis assay; set-up: unit not given here; details: approximately 3 days of treatment
Method: as §2, §3
(§5) Cells cultured in the presence or absence of drug were washed 1× with phosphate-buffered saline (PBS) and centrifuged for 5 min at 1500 rpm. Washed cell pellets were re-suspended in 100 μl of 20% Annexin-V-fluorescein labeling reagent and 20% propidium iodide (PI) in HEPES buffer. Cells were incubated for 15 min at room temperature, followed by dilution with 0.8 ml of HEPES buffer. Samples were then analyzed by flow cytometry. As controls, cells were incubated for 15 min with PI alone, Annexin-V-fluorescein labeling reagent alone, or HEPES buffer, and then diluted with HEPES buffer and analyzed by flow cytometry.

Ba/F3-PDGFRα-T674M [5] = experiment: Apoptosis assay; set-up: unit not given here; details: approximately 3 days of treatment
Method: as §2, §3, §5

Ba/F3-kit-T6701 [6] = experiment: Apoptosis assay; set-up: unit not given here; details: approximately 3 days of treatment
Method: as §2, §3, §5

CCN1CCN(Cc2ccc(NC(=O)c3cccc(-c4ccc5nc(NC(=O)C6CC6)sc5n4)c3)cc2C(F)(F)F)CC1 [Compound 2]
% G2M (32D-BCR-Abl; 0.1 μM): 3.78% | % S (32D-BCR-Abl; 0.1 μM): 19.71% | % G0G1 (32D-BCR-Abl; 1.0 μM): 77.44% | % G2M (32D-BCR-Abl; 1.0 μM): 9.07% | % S (32D-BCR-Abl; 1.0 μM): 13.49% | IC50 (Ba/F3-PDGFRα-D842V): 1000 nM | IC50 (Ba/F3-PDGFRα-V561D): > 1000 nM | IC50 (Ba/F3-TEL/PDGFRβ): < 100 nM | % G0G1 (Ba/F3-PDGFRα-T674I [1]; 0.01 μM): 57.30% | % G2M (Ba/F3-PDGFRα-T674I [1]; 0.01 μM): 5.98% | % S (Ba/F3-PDGFRα-T674I [1]; 0.01 μM): 36.72% | % G0G1 (Ba/F3-PDGFRα-T674I [1]; 0.1 μM): 64.90% | % G2M (Ba/F3-PDGFRα-T674I [1]; 0.1 μM): 5.82% | % S (Ba/F3-PDGFRα-T674I [1]; 0.1 μM): 29.28% | % G0G1 (Ba/F3-PDGFRα-T674I [1]; 1.0 μM): 77.55% | % G2M (Ba/F3-PDGFRα-T674I [1]; 1.0 μM): 7.16% | % S (Ba/F3-PDGFRα-T674I [1]; 1.0 μM): 15.29% | % G0G1 (Ba/F3-PDGFRα-T674M [2]; 0.01 μM): 40.81% | % G2M (Ba/F3-PDGFRα-T674M [2]; 0.01 μM): 7.41% | % S (Ba/F3-PDGFRα-T674M [2]; 0.01 μM): 51.78% | % G0G1 (Ba/F3-PDGFRα-T674M [2]; 0.1 μM): 72.37% | % G2M (Ba/F3-PDGFRα-T674M [2]; 0.1 μM): 3.62% | % S (Ba/F3-PDGFRα-T674M [2]; 0.1 μM): 24.01% | % G0G1 (Ba/F3-PDGFRα-T674M [2]; 1.0 μM): 79.92% | % G2M (Ba/F3-PDGFRα-T674M [2]; 1.0 μM): 2.46% | % S (Ba/F3-PDGFRα-T674M [2]; 1.0 μM): 17.61% | % G0G1 (Ba/F3-kit-T6701 [3]; 0.01 μM): 35.2% | % G2M (Ba/F3-kit-T6701 [3]; 0.01 μM): 14.62% | % S (Ba/F3-kit-T6701 [3]; 0.01 μM): 50.19% | % G0G1 (Ba/F3-kit-T6701 [3]; 0.1 μM): 29.01% | % G2M (Ba/F3-kit-T6701 [3]; 0.1 μM): 16.54% | % S (Ba/F3-kit-T6701 [3]; 0.1 μM): 54.45% | % G0G1 (Ba/F3-kit-T6701 [3]; 1.0 μM): 52.57% | % G2M (Ba/F3-kit-T6701 [3]; 1.0 μM): 10.05% | % S (Ba/F3-kit-T6701 [3]; 1.0 μM): 37.38% | Apoptotic (Ba/F3-PDGFRα-T674I [4]; 0.01 μM): 38.1 | Necrotic (Ba/F3-PDGFRα-T674I [4]; 0.01 μM): 0.1 | Viable (Ba/F3-PDGFRα-T674I [4]; 0.01 μM): 61.9 | Apoptotic (Ba/F3-PDGFRα-T674I [4]; 0.1 μM): 84.7 | Necrotic (Ba/F3-PDGFRα-T674I [4]; 0.1 μM): 0.2 | Viable (Ba/F3-PDGFRα-T674I [4]; 0.1 μM): 15.2 | Apoptotic (Ba/F3-PDGFRα-T674I [4]; 1.0 μM): 94.1 | Necrotic (Ba/F3-PDGFRα-T674I [4]; 1.0 μM): 0 | Viable (Ba/F3-PDGFRα-T674I [4]; 1.0 μM): 5.8 | Apoptotic (Ba/F3-PDGFRα-T674M [5]; 0.01 μM): 9 | Necrotic (Ba/F3-PDGFRα-T674M [5]; 0.01 μM): 0 | Viable (Ba/F3-PDGFRα-T674M [5]; 0.01 μM): 91 | Apoptotic (Ba/F3-PDGFRα-T674M [5]; 0.1 μM): 65.2 | Necrotic (Ba/F3-PDGFRα-T674M [5]; 0.1 μM): 0 | Viable (Ba/F3-PDGFRα-T674M [5]; 0.1 μM): 34.7 | Apoptotic (Ba/F3-PDGFRα-T674M [5]; 1.0 μM): 86.80 | Necrotic (Ba/F3-PDGFRα-T674M [5]; 1.0 μM): 0.1 | Viable (Ba/F3-PDGFRα-T674M [5]; 1.0 μM): 13.2 | Apoptotic (Ba/F3-kit-T6701 [6]; 0.01 μM): 2.3 | Necrotic (Ba/F3-kit-T6701 [6]; 0.01 μM): 0 | Viable (Ba/F3-kit-T6701 [6]; 0.01 μM): 97.7 | Apoptotic (Ba/F3-kit-T6701 [6]; 0.1 μM): 3.1 | Necrotic (Ba/F3-kit-T6701 [6]; 0.1 μM): 0 | Viable (Ba/F3-kit-T6701 [6]; 0.1 μM): 96.9 | Apoptotic (Ba/F3-kit-T6701 [6]; 1.0 μM): 8.4 | Necrotic (Ba/F3-kit-T6701 [6]; 1.0 μM): 0 | Viable (Ba/F3-kit-T6701 [6]; 1.0 μM): 91.6
